Source: patent US11931343B2 (ARCUS BIOSCIENCES, INC., priority 2018, dated 2024)

The compounds below were run against T1, human CD73 (Homo sapiens, UniProt P21589) (assay: Inhibition of Ecto-5′-nucleotidase (CD73) activity in CHO-CD73 cells, phosphate release from AMP). Settings: CHO-K1 cells stably transfected with human CD73; 25 μM AMP; 50 minutes, 37° C.; read-out: Potency: CD73 IC50.
T1 sequence (P21589 27-549): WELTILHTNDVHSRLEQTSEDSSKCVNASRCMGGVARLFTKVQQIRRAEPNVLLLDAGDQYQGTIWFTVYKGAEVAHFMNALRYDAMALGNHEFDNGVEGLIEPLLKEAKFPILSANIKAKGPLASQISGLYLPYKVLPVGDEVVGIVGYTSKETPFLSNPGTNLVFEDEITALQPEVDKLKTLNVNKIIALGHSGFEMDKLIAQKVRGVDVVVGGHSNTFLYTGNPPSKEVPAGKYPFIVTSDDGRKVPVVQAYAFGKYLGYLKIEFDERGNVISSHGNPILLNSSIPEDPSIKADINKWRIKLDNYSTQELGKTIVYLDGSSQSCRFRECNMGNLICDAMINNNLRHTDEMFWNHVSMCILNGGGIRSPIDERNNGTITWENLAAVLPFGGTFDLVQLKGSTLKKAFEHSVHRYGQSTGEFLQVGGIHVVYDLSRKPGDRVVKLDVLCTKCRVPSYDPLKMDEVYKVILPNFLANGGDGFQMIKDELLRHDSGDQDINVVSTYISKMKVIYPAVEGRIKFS
Format: cell-based

Row | IC50 | Compound
1 | 0.1 to 1 µM | Fc1cc(-c2ccnn2Cc2ccccc2C(F)(F)F)cc2c1nnn2-c1ccc2cn[nH]c2c1 [Example 103]
2 | 0.1 to 1 µM | Cc1ccc(Cn2nccc2-c2cc(Cl)c3nnn(-c4ccc5[nH]c(=O)[nH]c5c4)c3c2)cc1F [Example 207]
3 | 0.1 to 1 µM | N#Cc1ccc(Cn2nccc2-c2cc(F)c3nnn(-c4ccc5[nH]c(=O)[nH]c5c4)c3c2)c(C(=O)O)c1 [Example 306]
4 | 0.1 to 1 µM | O=c1[nH]c2ccc(-n3nnc4ccc(-c5ccnn5Cc5ccc(F)cn5)cc43)cc2[nH]1 [Example 203]
5 | 0.1 to 1 µM | Nc1nn(-c2ccc3cn[nH]c3c2)c2cc(-c3ccnn3Cc3ccc(Cl)cn3)cnc12 [Example 274]
6 | 0.1 to 1 µM | CC(c1ccc(Br)cn1)n1nccc1-c1ccc2nnn(-c3ccc4cn[nH]c4c3)c2c1 (stereo not drawn) [Example 92]
7 | > 1 µM | N#Cc1ccc(Cn2nccc2-c2cnc3c(c2)c(-c2ccc4[nH]c(=O)[nH]c4c2)nn3CCO)cc1 [Example 324]
8 | < 0.1 µM | Oc1cccc(-n2nnc3c(Cl)cc(-c4ccnn4Cc4ccccc4)cc32)c1 [Example 9, 3-[6-(1-Benzyl-1H-pyrazol-5-yl)-4-chloro-1H-1,2,3-benzotriazol-1-yl]phenol]
9 | < 0.1 µM | Clc1ccccc1Cn1nccc1-c1cc(Cl)c2nnn(-c3ccc4cn[nH]c4c3)c2c1 [Example 52]
10 | 0.1 to 1 µM | N#Cc1ccc(Cn2nccc2-c2cc(F)c3nnn(-c4ccc5[nH]c(=O)[nH]c5c4)c3c2)c(N2CCCC2=O)c1 [Example 232]
11 | > 1 µM | N#Cc1ccc(Cn2nccc2-c2cnc3cnn(-c4ccc5[nH]c(=O)[nH]c5c4)c3c2)cc1 [Example 180]
12 | 0.1 to 1 µM | O=c1[nH]c2ccc(-n3nnc4c(F)cc(-c5ccnn5-c5cc(Cl)cc(Cl)c5)cc43)cc2[nH]1 [Example 227]
13 | 0.1 to 1 µM | FC(F)(F)c1ccccc1Cn1nccc1-c1cc(Cl)c2nnn(-c3ccc4cn[nH]c4c3)c2c1 [Example 102]
14 | 0.1 to 1 µM | Clc1ccc(Cn2nccc2-c2cnc3cnn(-c4ccc5cn[nH]c5c4)c3c2)c(Cl)c1 [Example 163]
15 | > 1 µM | O=c1[nH]c2ccc(-n3nnc4c(F)cc(-c5ccnn5Cc5ccccn5)cc43)cc2[nH]1 [Example 201]
16 | < 0.1 µM | Cc1ccc(Cn2nccc2-c2cc(Cl)c3nnn(-c4ccc5cn[nH]c5c4)c3c2)cc1 [Example 54]
17 | 0.1 to 1 µM | FC(F)(F)c1ccc(Cn2nccc2-c2cc(Cl)c3nnn(-c4ccc5cn[nH]c5c4)c3c2)c(Cl)c1 [Example 110]
18 | 0.1 to 1 µM | N#Cc1ccc(Cn2ncc(Cl)c2-c2cc(F)c3nnn(-c4ccc5[nH]c(=O)[nH]c5c4)c3c2)cc1 [Example 326]
19 | 0.1 to 1 µM | O=c1[nH]c2ccc(-n3nnc4c(Cl)cc(-c5ccnn5C5CCc6cc(Cl)ccc65)cc43)cc2[nH]1 (stereo not drawn) [Example 262]

Row | IC50 | Compound
20 | 0.1 to 1 µM | N#Cc1ccc(Cn2nccc2-c2cnc3c(N)nn(-c4cc(F)c5[nH]c(=O)[nH]c5c4)c3c2)c(F)c1 [Example 337]
21 | > 1 µM | N#Cc1ccc(Cn2nccc2-c2cnc3c(c2)c(-c2ccc4cn[nH]c4c2)nn3CCc2ccccc2)cc1 [Example 342]
22 | 0.1 to 1 µM | O=c1[nH]c2ccc(-n3nnc4cnc(-c5ccnn5Cc5ccc(Cl)cn5)cc43)cc2[nH]1 [Example 165]
23 | 0.1 to 1 µM | N#Cc1ccc(Cn2nccc2-c2cc(F)c3nnn(-c4ccc5[nH][nH]c(=O)c5c4)c3c2)cc1 [Example 343]
24 | 0.1 to 1 µM | N#Cc1ccc(Cn2nccc2-c2cc(C(F)(F)F)c3nnn(-c4ccc5cn[nH]c5c4)c3c2)cc1 [Example 123]
25 | > 1 µM | Cc1ncc(Cn2nccc2-c2cc(Cl)c3nnn(-c4ccc5[nH]c(=O)[nH]c5c4)c3c2)o1 [Example 244]
26 | 0.1 to 1 µM | O=c1[nH]c2ccc(-n3nnc4cnc(-c5ccnn5Cc5ccc(F)cn5)cc43)cc2[nH]1 [Example 189]
27 | > 1 µM | Nc1cccc(Cn2nccc2-c2cc(Cl)c3nnn(-c4ccc5[nH]c(=O)[nH]c5c4)c3c2)n1 [Example 287]
28 | 0.1 to 1 µM | COCc1cc(C#N)ccc1Cn1nccc1-c1cc(F)c2nnn(-c3ccc4[nH]c(=O)[nH]c4c3)c2c1 [Example 279]
29 | 0.1 to 1 µM | Cc1nc(-c2ccnn2Cc2ccc(C#N)cc2)cc2c1nnn2-c1ccc2cn[nH]c2c1 [Example 169]
30 | > 1 µM | CNc1nn(-c2ccc3cn[nH]c3c2)c2cc(-c3ccnn3Cc3ccc(C#N)cc3)cnc12 [Example 423]
31 | < 0.1 µM | N#Cc1ccc(Cn2nccc2-c2cc(F)c3nnn(-c4ccc5[nH]c(=O)[nH]c5c4)c3c2)c(Cl)c1 [Example 235]
32 | 0.1 to 1 µM | N#Cc1ccc(Cn2nccc2-c2cc(F)c3nnn(-c4ccc5c(=O)[nH][nH]c5c4)c3c2)cc1 [Example 350]
33 | 0.1 to 1 µM | N#Cc1cc(F)c(Cn2nccc2-c2cc(Cl)c3nnn(-c4ccc5[nH]c(=O)[nH]c5c4)c3c2)c(F)c1 [Example 273]
34 | > 1 µM | N#CCc1ccc(Cn2nccc2-c2cc(F)c3nnn(-c4ccc5[nH]c(=O)[nH]c5c4)c3c2)cc1 [Example 319]
35 | 0.1 to 1 µM | O=c1[nH]c2ccc(-n3nnc4c(F)cc(-c5ccnn5Cc5ccc(Cl)cc5Cl)cc43)cc2[nH]1 [Example 170]
36 | > 1 µM | O=c1[nH]c2ccc(-n3nnc4c(Cl)cc(-c5ccnn5Cc5cc(F)ccc5F)cc43)cc2[nH]1 [Example 252]
37 | 0.1 to 1 µM | N#Cc1ccc(Cn2ncc(F)c2-c2cc(F)c3nnn(-c4ccc5[nH]c(=O)[nH]c5c4)c3c2)cc1 [Example 331]

The next lines start with the compound.

Row | Compound | IC50
38 | Cn1nccc1Cn1nccc1-c1cc(F)c2nnn(-c3ccc4[nH]c(=O)[nH]c4c3)c2c1 [Example 249] | > 1 µM
39 | Cc1cccc(-n2nccc2-c2cc3c(cc2Cl)nnn3-c2ccc3cn[nH]c3c2)c1 [Example 411] | 0.1 to 1 µM
40 | CC(c1ccc(C#N)cc1)n1nccc1-c1ccc2nnn(-c3ccc4cn[nH]c4c3)c2c1 (stereo not drawn) [Example 115] | 0.1 to 1 µM
41 | N#Cc1ccc(Cn2nccc2-c2cc3c(nnn3-c3ccc4cn[nH]c4c3)c(=O)[nH]2)cc1 [Example 352] | < 0.1 µM
42 | COc1ccc(Cn2nccc2-c2ccc3nnn(-c4ccc5cn[nH]c5c4)c3c2)cc1 [Example 55] | 0.1 to 1 µM
43 | Nc1nn(-c2ccc3[nH]c(=O)[nH]c3c2)c2cc(-c3ccnn3Cc3ccc(Cl)cn3)cnc12 [Example 295] | > 1 µM
44 | Cc1cc(C#N)cnc1Cn1nccc1-c1cc(F)c2nnn(-c3ccc4[nH]c(=O)[nH]c4c3)c2c1 [Example 280] | > 1 µM
45 | N#Cc1ccc(Cn2nccc2-c2cc(F)c3nnn(-c4ccc5c(CNC(=O)CN)n[nH]c5c4)c3c2)cc1 [Example 351] | > 1 µM
46 | Cc1cc(F)ccc1Cn1nccc1-c1cc(Cl)c2nnn(-c3ccc4[nH]c(=O)[nH]c4c3)c2c1 [Example 208] | 0.1 to 1 µM
47 | Cc1cc(-n2nccc2-c2cc(Cl)c3nnn(-c4ccc5[nH]c(=O)[nH]c5c4)c3c2)ccc1Cl [Example 263] | > 1 µM
48 | N#Cc1ccc(Cn2nccc2-c2cc(F)c3nnn(-c4ccc5[nH]c(=O)[nH]c5c4)c3c2)c(C#N)c1 [Example 211] | 0.1 to 1 µM
49 | O=c1[nH]c2ccc(-n3nnc4c(Cl)cc(-c5ccnn5-c5cccc(C(F)(F)F)c5)cc43)cc2[nH]1 [Example 222] | 0.1 to 1 µM
50 | N#Cc1ccc(Cn2nccc2-c2cc(F)c3cnn(-c4ccc5cn[nH]c5c4)c3c2)nc1 [Example 131] | > 1 µM
51 | Fc1ccc(Cn2nccc2-c2cc(Cl)c3nnn(-c4ccc5cn[nH]c5c4)c3c2)nc1 [Example 73] | < 0.1 µM
52 | N#Cc1ccc(Cn2nccc2-c2cnc3c(N)nn(-c4ccc5cn[nH]c5c4)c3c2)nc1 [Example 281] | 0.1 to 1 µM
53 | N#Cc1ccc(Cn2nccc2-c2cc3c(nnn3-c3ccc4cn[nH]c4c3)[nH]c2=O)cc1 [Example 372] | 0.1 to 1 µM
54 | Clc1ccc(Cn2nccc2-c2cc3c(cn2)cnn3-c2ccc3cn[nH]c3c2)nc1 [Example 149] | > 1 µM
55 | O=c1[nH]c2ccc(-n3nnc4c(Cl)cc(-c5ccnn5Cc5cc(F)c(Cl)cc5Cl)cc43)cc2[nH]1 [Example 256] | 0.1 to 1 µM
56 | N#Cc1ccc(Cn2nccc2-c2cc(Cl)c3nnn(-c4ccc5[nH]c(=O)[nH]c5c4)c3c2)c(F)c1 [Example 228] | < 0.1 µM
57 | Cc1cc(Cl)ccc1Cn1nccc1-c1cc(F)c2nnn(-c3ccc4cn[nH]c4c3)c2c1 [Example 95] | < 0.1 µM
58 | FC1(F)CN(CCn2nccc2-c2ccc3nnn(-c4ccc5cn[nH]c5c4)c3c2)C1 [Example 121] | > 1 µM
59 | Cc1ccc(Cn2nccc2-c2cc(Cl)c3nnn(-c4ccc5cn[nH]c5c4)c3c2)nc1 [Example 84] | 0.1 to 1 µM
60 | N#Cc1ccc(Cn2nccc2-c2cc(F)c3nnn(-c4ccc5[nH]c(=O)[nH]c5c4)c3c2)c(C(N)=O)c1 [Example 290] | 0.1 to 1 µM
61 | N#Cc1ccc(Cn2nccc2-c2cc3c(cn2)nnn3-c2ccc3c(=O)[nH][nH]c3c2)cc1 [Example 346] | 0.1 to 1 µM
62 | N#Cc1ccc(Cn2nccc2-c2cc3c(c[n+]2[O-])nnn3-c2ccc3[nH]c(=O)[nH]c3c2)cc1 [Example 391] | > 1 µM
63 | O=c1[nH]c2ccc(-n3nnc4c(F)cc(-c5ccnn5CCc5ccc(Cl)cc5)cc43)cc2[nH]1 [Example 205] | > 1 µM
64 | Cc1ccc(Cn2nccc2-c2cc(Cl)c3nnn(-c4ccc5cn[nH]c5c4)c3c2)[n+]([O-])c1 [Example 381] | < 0.1 µM
65 | CCS(=O)(=O)c1cc(C#N)ccc1Cn1nccc1-c1cc(F)c2nnn(-c3ccc4[nH]c(=O)[nH]c4c3)c2c1 [Example 261] | 0.1 to 1 µM
66 | c1ccc(Cn2nccc2-c2cc3c(cn2)nnn3-c2ccc3cn[nH]c3c2)cc1 [Example 128] | 0.1 to 1 µM
